Reference: paper PMC5105127, “16-nor Limonoids from Harrisonia perforata as promising selective 11β-HSD1 inhibitors” (Scientific Reports, 2016)
Where two headings read alike, the source gives them in different places. Values belong to the compound of their own block, whether it stands above or below them.

Tests used:
Format in all cases: biochemical
human 11β-HSD2 = experiment: scintillation proximity assay (SPA), human 11β-HSD2; conditions: human 11β-HSD2 vs human 11β-HSD1
Protocol: (§1) The inhibitory activity of compounds 1–3 on murine and human 11β-HSD1 was evaluated using the scintillation proximity assay (SPA)[25]. […] We further used the intact cell transfected with human HSD11B1 and HSD11B2 to screen their bioactivities.
(§2) The inhibitory activities of the compounds on human or mouse 11β-HSD1 and 11β-HSD2 were determined using the scintillation proximity assay (SPA). The full-length cDNAs of human or murine11β-HSD1 and 11β-HSD2 were isolated from the cDNA libraries provided by NIH Mammalian Gene Collection. The cDNAs were cloned into pcDNA3 expression vectors. HEK-293 cells were transfected with the pcDNA3-derived expression plasmid and selected by cultivation in the presence of 700 μg/ml of G418. The microsomal fraction overexpressing 11β-HSD1 or 11β-HSD2 was prepared from the HEK-293 cells, which were stably transfected with 11β-HSD1 or 11β-HSD2. The fraction was then used as the enzyme source for SPA. Microsomes containing human or mouse 11β-HSD1 were incubated with NADPH and [^3H] cortisone. The product, [^3H] cortisol, was specifically captured by a monoclonal antibody coupled to protein A-coated SPA beads. The 11β-HSD2 screening was performed by incubating 11β-HSD2 microsomes with [^3H] cortisol and NAD + and monitoring substrate disappearance. […] IC50 (X + SD, n = 2) values were calculated by using Prism Version 4 (GraphPad Software, SanDiego, CA).

human 11β-HSD1 = biological target: T1, human 11β-HSD1 (Homo sapiens, UniProt P28845); experiment: scintillation proximity assay (SPA), human 11β-HSD1
T1 construct: The full-length cDNAs of human or murine11β-HSD1 and 11β-HSD2 were isolated from the cDNA libraries; made in house; host or cells: HEK-293, stably transfected with a pcDNA3 plasmid; microsomal fraction
Protocol: as §1, §2

murine 11β-HSD1 = biological target: T2, murine 11β-HSD1 (Mus musculus, UniProt P50172); experiment: scintillation proximity assay (SPA), murine 11β-HSD1
T2 construct: The full-length cDNAs of human or murine11β-HSD1 and 11β-HSD2 were isolated from the cDNA libraries; made in house; host or cells: HEK-293, stably transfected with a pcDNA3 plasmid; microsomal fraction
Protocol: The inhibitory activity of compounds 1–3 on murine and human 11β-HSD1 was evaluated using the scintillation proximity assay (SPA)[25]. […] We further used the intact cell transfected with human HSD11B1 and HSD11B2 to screen their bioactivities. […] The inhibitory activities of the compounds on human or mouse 11β-HSD1 and 11β-HSD2 were determined using the scintillation proximity assay (SPA). The full-length cDNAs of human or murine11β-HSD1 and 11β-HSD2 were isolated from the cDNA libraries provided by NIH Mammalian Gene Collection. The cDNAs were cloned into pcDNA3 expression vectors. HEK-293 cells were transfected with the pcDNA3-derived expression plasmid and selected by cultivation in the presence of 700 μg/ml of G418. The microsomal fraction overexpressing 11β-HSD1 or 11β-HSD2 was prepared from the HEK-293 cells, which were stably transfected with 11β-HSD1 or 11β-HSD2. The fraction was then used as the enzyme source for SPA. Microsomes containing human or mouse 11β-HSD1 were incubated with NADPH and [^3H] cortisone. The product, [^3H] cortisol, was specifically captured by a monoclonal antibody coupled to protein A-coated SPA beads. The 11β-HSD2 screening was performed by incubating 11β-HSD2 microsomes with [^3H] cortisol and NAD + and monitoring substrate disappearance. All tests were done twice with glycyrrhizinic acid as a positive control.

murine 11β-HSD2 = biological target: T3, murine 11β-HSD2 (Mus musculus, UniProt P51661); experiment: scintillation proximity assay (SPA), murine 11β-HSD2
T3 construct: The full-length cDNAs of human or murine11β-HSD1 and 11β-HSD2 were isolated from the cDNA libraries; made in house; host or cells: HEK-293, stably transfected with a pcDNA3 plasmid; microsomal fraction
T3 sequence (P51661 1-386): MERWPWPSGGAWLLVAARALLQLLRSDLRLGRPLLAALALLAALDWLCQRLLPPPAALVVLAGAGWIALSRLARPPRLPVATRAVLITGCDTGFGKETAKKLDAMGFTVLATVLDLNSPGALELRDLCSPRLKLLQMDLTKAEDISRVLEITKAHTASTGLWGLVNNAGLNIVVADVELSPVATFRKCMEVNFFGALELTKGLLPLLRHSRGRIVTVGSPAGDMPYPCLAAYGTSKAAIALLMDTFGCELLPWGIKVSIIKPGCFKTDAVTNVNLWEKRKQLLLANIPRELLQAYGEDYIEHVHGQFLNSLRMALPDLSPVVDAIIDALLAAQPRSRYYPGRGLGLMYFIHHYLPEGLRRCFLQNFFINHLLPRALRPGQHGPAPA
Protocol: as §1, §2

T2 sequence (P50172 whole entry): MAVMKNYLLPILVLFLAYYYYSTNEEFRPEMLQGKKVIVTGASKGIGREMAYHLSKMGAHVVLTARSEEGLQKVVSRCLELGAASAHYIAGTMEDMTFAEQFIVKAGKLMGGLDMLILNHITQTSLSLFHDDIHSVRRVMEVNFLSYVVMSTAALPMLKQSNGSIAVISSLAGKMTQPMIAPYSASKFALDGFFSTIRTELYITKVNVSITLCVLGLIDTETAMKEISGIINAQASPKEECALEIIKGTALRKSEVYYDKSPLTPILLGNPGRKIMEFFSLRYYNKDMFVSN
T1 sequence (P28845 whole entry): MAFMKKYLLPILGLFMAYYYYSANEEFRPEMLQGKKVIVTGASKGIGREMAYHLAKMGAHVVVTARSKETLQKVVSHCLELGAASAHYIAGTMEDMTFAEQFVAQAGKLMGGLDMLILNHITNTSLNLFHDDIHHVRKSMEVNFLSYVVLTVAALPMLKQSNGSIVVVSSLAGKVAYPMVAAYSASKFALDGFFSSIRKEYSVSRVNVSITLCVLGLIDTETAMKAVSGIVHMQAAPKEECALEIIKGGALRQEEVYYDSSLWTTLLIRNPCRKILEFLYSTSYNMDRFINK

IC50 (human 11β-HSD1; SPA, text: intact cell transfected with human HSD11B1, whole cell assay, read-out: IC50, inhibition of human 11β-HSD1): 580 nM
SMILES: CC1=CC23C(=O)OC(C)(C)C1CC2(O)CC1=C2C(=O)OC(c4ccoc4)C2(C)CCC13 (centres unmarked) [Compound 3, Harperforin G]
SI (selectivity against human 11β-HSD2) (human 11β-HSD2): > 174

inhibition at 0.1 µM (murine 11β-HSD1; 0.1 μM, read-out: Inhibition rate on murine 11β-HSD1): 22.8%
inhibition at 0.3 µM (murine 11β-HSD1; 0.3 μM, read-out: Inhibition rate on murine 11β-HSD1): 35.1%
inhibition at 1 µM (murine 11β-HSD1; 1 μM, read-out: Inhibition rate on murine 11β-HSD1): 55.8%
inhibition at 3 µM (murine 11β-HSD1; 3 μM, read-out: Inhibition rate on murine 11β-HSD1): 79.4%
inhibition at 10 µM (murine 11β-HSD1; 10 μM, read-out: Inhibition rate on murine 11β-HSD1): 90.5%
IC50 (murine 11β-HSD1; SPA, text: intact CHOP cells transfected with murine HSD11B1, read-out: IC50, inhibition of murine 11β-HSD1): 600 nM
inhibition of murine 11β-HSD2 activity (murine 11β-HSD2; at 1 mM): did not inhibit the enzyme at all
SI (selectivity against murine 11β-HSD2) (murine 11β-HSD2; murine 11β-HSD2 vs murine 11β-HSD1): > 1661
inhibitory activity against human 11β-HSD1 enzyme (human 11β-HSD1; in words): low inhibitory activity
SMILES: CC1(C)OC(=O)C=C[C@]2(C)O[C@@]3(CC4=C5C(=O)O[C@@H](c6ccoc6)[C@]5(C)CC[C@H]4O3)C[C@H]12 [Compound 1, Harperspinoid A]

inhibition at 0.001 µM (murine 11β-HSD1; 1 nM, read-out: Inhibition rate on murine 11β-HSD1): 21.2%
inhibition at 0.01 µM (murine 11β-HSD1; 10 nM, read-out: Inhibition rate on murine 11β-HSD1): 51.9%
inhibition at 0.1 µM (murine 11β-HSD1; 100 nM, read-out: Inhibition rate on murine 11β-HSD1): 86.8%
SMILES: CC1(C)[C@@H](O[C@H]2O[C@H](C(=O)O)[C@@H](O)[C@H](O)[C@H]2O[C@@H]2O[C@H](C(=O)O)[C@@H](O)[C@H](O)[C@H]2O)CC[C@]2(C)[C@H]3C(=O)C=C4[C@@H]5C[C@@](C)(C(=O)O)CC[C@]5(C)CC[C@@]4(C)[C@]3(C)CC[C@@H]12 [Glycyrrhizic acid, reference compound]
